Assays:
VDAC1 = target: T1, VDAC1 (Rattus norvegicus, UniProt Q9Z2L0); assay: Micro-scale thermophoresis (MST) interaction with VDAC1; format: binding; conditions: without prior exposure to high voltage
T1 construct: from tissue; host or cells: rat liver mitochondria (inferred)

human PBMCs = assay: A23187-induced mitochondrial ROS (MitoSOX); format: cell-based; conditions: VBIT-4 (5 μM), A23187 (25 μM), 1 h
Experimental: Cellular cGAMP levels were measured by LC/MS (Agilent Technologies) using 5% perchloric acid extracts of WT and EndoG^−/− MEFs. Intracellular ROS production in MEFs was measured using the oxidative stress indicator CM-H2DCFDA (Invitrogen) with flow cytometry (FACS). Mitochondrial ROS in MEFs was evaluated using the mitochondrial superoxide indicator MitoSOX (Invitrogen) with a confocal microscope (LSM880, Zeiss, and the fluorescence intensity was measured using Zen software (Zeiss). To quantify mitochondrial ROS in human PBMCs, the cells were obtained from heparinized blood using a Ficoll-Paque gradient. The cells were washed with PBS, resuspended in RPMI 1640 medium, and transferred to 96-well plates. Subsequently, the cells were stimulated with calcium ionophore A23187 (25 μM), VBIT-4 (5 μM), and MitoSOX (2 μM) (Life Technologies). After 1 h at 37° C., the fluorescence was measured at 510/595 nm using a microplate reader (Synergy HTX; BIOTEK). Cells without dye were used as the blank control.

T1 sequence (Q9Z2L0 whole entry): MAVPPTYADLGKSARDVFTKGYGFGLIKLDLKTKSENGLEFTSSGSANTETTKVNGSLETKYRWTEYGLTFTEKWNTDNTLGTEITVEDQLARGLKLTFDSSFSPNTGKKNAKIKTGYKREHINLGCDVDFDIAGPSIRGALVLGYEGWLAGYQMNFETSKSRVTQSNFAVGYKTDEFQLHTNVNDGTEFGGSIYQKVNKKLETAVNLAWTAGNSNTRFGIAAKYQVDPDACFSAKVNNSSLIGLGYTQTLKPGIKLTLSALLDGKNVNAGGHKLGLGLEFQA

In the case of O=C(CC(CO)N1CCN(c2ccc(OC(F)(F)F)cc2)CC1)Nc1ccc(Cl)cc1 (stereo not drawn) [VBIT-4, N-(4-chlorophenyl)-4-hydroxy-3-(4-(4-(trifluoromethoxy)phenyl)-piperazin-1-yl)butanamide], the “interaction with VDAC1 measured by MST” value (VDAC1) is reported as “did show interaction”, the “A23187-induced mitochondrial ROS” value (human PBMCs; healthy controls) is reported as “decreased” and the “A23187-induced mitochondrial ROS” value (human PBMCs; lupus patients) is reported as “decreased”.

From US20220023381A1, “VDAC INHIBITORS FOR TREATING AUTOIMMUNE DISEASES” (NATIONAL INSTITUTE FOR BIOTECHNOLOGY IN THE NEGEV LTD., priority 2018, published 2022)
